Data published in article PMC12584752, “Covalent fragment screening to inhibit the E3 ligase activity of bacterial NEL enzymes SspH1 and SspH2” (RSC Chemical Biology, 2025).

Experiments:
SspH1 (161–700) = SspH1 (161–700) (Salmonella typhimurium, UniProt D0ZVG2); assay: Substrate (PKN1) ubiquitination assay; format: biochemical; design: SspH1 (5 μM, 161–700) was prelabelled at 350 rpm, RT for 18 hours; His-tag (N, cleaved yes); made in house; host or cells: E. coli BL21; conditions: SspH1 pre-labelled with compound overnight at RT; 0–30 minutes
Chain of SspH1 (161–700) (D0ZVG2 161-700): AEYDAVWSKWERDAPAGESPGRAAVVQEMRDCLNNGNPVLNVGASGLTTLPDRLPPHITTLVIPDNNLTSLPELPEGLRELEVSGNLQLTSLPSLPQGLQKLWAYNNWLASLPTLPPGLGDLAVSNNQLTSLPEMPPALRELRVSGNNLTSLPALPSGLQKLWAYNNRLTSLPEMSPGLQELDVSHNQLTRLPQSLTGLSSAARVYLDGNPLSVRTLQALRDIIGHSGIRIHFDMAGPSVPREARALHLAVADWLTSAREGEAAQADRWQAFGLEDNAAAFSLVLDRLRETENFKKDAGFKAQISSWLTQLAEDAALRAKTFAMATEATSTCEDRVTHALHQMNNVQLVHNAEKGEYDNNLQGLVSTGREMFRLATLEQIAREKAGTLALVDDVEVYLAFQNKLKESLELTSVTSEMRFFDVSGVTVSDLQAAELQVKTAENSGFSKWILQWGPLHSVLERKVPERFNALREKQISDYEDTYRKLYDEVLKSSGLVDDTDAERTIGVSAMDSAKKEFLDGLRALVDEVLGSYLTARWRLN
Experimental: Fig. 4 SspH1 in vitro inhibition with compounds 6 and 7. (A) Discharge assay schematic; (B) E2–Ub discharge time course assay with SspH1 pre-treated with either DMSO or compounds 6 or 7. UbcH5A–Ub-cy3 (1 μM) was incubated at RT for 0–30 minutes with SspH1 (residues 161–700, 50 nM) which had been pre-labelled with 6 or 7 at RT overnight. (C) Substrate ubiquitination assay schematic; (D) PKN1 ubiquitination time course assay with SspH1 pre-treated with either DMSO or compounds 6 or 7. A reaction of UBA1 (0.1 μM), UbcH5A (2 μM), ubiquitin (20 μM), PKN1 HR1b (2 μM, residues 122–199) and 10 mM ATP was incubated at RT for 0–30 minutes with SspH1 (residues 161–700, 0.5 μM) which had been pre-labelled with 6 or 7 at RT overnight.
Alternatively, substrate ubiquitination can be followed in vitro using a reconstituted ubiquitin enzymatic cascade, where recombinant ubiquitin, E1, E2, E3 and substrate are incubated with ATP (Fig. 4C). With SspH1, E3 ligase activity can then be observed by ubiquitination of its substrate PKN1.[25] This assay represents a higher order of complexity and involves three enzymes with catalytic cysteines (E1, E2 and E3) and is closer to in situ E3 activity. We compared SspH1 ubiquitination activity when SspH1 was pre-treated with DMSO or compound 6 or 7 (Fig. 4D), again overnight at room temperature to ensure complete labelling. […]

IpaH9.8 (21–545) = target: T1, IpaH9.8 (21–545) (Shigella flexneri, UniProt Q8VSC3); assay: Intact protein LC-MS covalent fragment labelling; format: binding; conditions: dilution series 100–6.25 μM, 24 hours at 4 °C
T1 construct: Recombinant IpaH9.8 (21–545) and SspH1 (161–700) were incubated at 0.5 μM; His-tag (N, cleaved yes); made in house; host or cells: E. coli BL21
T1 sequence (Q8VSC3 21-545): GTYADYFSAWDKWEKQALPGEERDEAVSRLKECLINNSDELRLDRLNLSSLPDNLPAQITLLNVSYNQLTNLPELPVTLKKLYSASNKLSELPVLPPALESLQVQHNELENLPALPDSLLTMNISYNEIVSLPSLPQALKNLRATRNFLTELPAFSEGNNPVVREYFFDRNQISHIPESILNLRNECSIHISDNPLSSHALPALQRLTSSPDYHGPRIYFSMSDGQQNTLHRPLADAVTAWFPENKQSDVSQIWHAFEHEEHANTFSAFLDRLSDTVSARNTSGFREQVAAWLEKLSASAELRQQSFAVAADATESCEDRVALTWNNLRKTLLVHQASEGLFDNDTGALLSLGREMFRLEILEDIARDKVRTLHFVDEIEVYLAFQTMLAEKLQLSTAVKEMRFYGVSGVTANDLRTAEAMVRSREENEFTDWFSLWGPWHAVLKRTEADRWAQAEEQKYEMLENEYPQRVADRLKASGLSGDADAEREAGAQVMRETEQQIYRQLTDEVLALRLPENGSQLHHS
Source text: A diverse library of 227 compounds with chloroacetamide warheads, featuring a diversity of molecular weight (162–321 Da) and clog P (−1.4 to 3.4) (Table S1), were screened against Salmonella and Shigella NEL E3 ligases using our intact protein liquid chromatography mass spectrometry (LC-MS) platform as previously described.[39,40] Briefly, recombinant SspH1 (161–700[30]) and IpaH9.8 (21–545[29]) (Fig. […] 1C). Raw counts were deconvoluted and the labelling percentage calculated by detection and comparison of protein and protein-fragment molecular weights.
Fig. 1 Intact protein LCMS screening of covalent fragment library against NEL proteins. (A) Cartoon depicting conserved NEL E3 ligase domains; (B) overlaid structures of SspH1 (blue, PDB 9H6W[30]) and IpaH9.8 (green, PDB 6LOL[29]) aligned on NEL domain; (C) workflow of covalent fragment screening using intact LC-MS; (D) fragment labelling percentages for SspH1 and IpaH9.8 with fragments 1–3 highlighted. […]
To mitigate the risk of selecting compounds which indiscriminately recognise ubiquitin binding proteins, we next performed preliminary selectivity studies with compounds 6 and 7 against human ubiquitin system proteins. […] In parallel, we tested the compounds against related NEL E3 ligases SspH2 and IpaH9.8. […]

Row | SMILES | PKN1 ubiquitination (SspH1 (161–700)) | labelling of IpaH9.8 (IpaH9.8 (21–545))
1 | Cc1cc(-c2nc3ccccc3n2C2CCN(C(=O)CCl)CC2)cc(C)c1O.Cl [compound 6] | completely abrogated | minimal labelling
2 | Cl.O=C(CCl)N1CCC(n2c(-c3ccc(C(F)(F)F)cc3)nc3ccccc32)CC1 [compound 7] | completely abrogated | minimal labelling
